The values below come from PubChem BioAssay AID2060600 (Molecular Pharmacology Branch, DTP, NCI, 2025).

The assay deals with 996289-038-R-J1-PDC complex spheroid viability. Nature of the assay: Anticancer human tumor 996289-038-R-J1-PDC patient-derived colon adenocarcinoma cell line growth inhibition [CLK]. The following applies: for viability, T/C: stronger effect = lower value. A digest of the protocol:
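Multi-cell-type spheroids combined patient-derived tumor cells with HUVEC endothelial cells and human mesenchymal stem cells. Paired agents were dosed in half-log steps down from about clinical Cmax, or from 10 microM where Cmax was unknown.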

pIC50: −log10 of the molar value. Values joined by “and” are separate entries in the source; they are usually repeats but may differ in a detail not shown here. Equal values may be shown once.
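Also: spheroids exposed to the agents for 7 days before readout.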

Regarding `COc1ccc([C@@H](O)c2cc(-c3ncnc4cc(N5CCOCC5)ccc34)c(F)cc2Cl)nn1`, the viability, T/C runs as follows: (compound 0.0316 µM) 102%; (compound 0.1 µM) 92.7% and 88.9%; (compound 0.316 µM) 101% and 90.7%; (compound 1 µM) 93.3% and 87.7%; (compound 3.16 µM) 77.5% and 79.5%; (compound 10 µM) 50.1% and 52.1%. Where the note is “curve of compound”, the pIC50 was below 5.00.

As to `C=C(F)C(=O)N1CCN(c2nc(OCC3CCCN3C)nc3c2CCN(c2cccc4cccc(Cl)c24)C3)CC1CC#N` (stereo unspecified) + CN1CCN(c2cc(C(=O)Nc3cc4cc(-c5cnn(C)c5)ccc4cn3)ccn2)CC1, the pIC50 reads like this: (curve of first compound, second compound 0.0316 µM) 5.34; (curve of first compound, second compound 0.1 µM) 5.36; (curve of first compound, second compound 0.316 µM) 5.54; (curve of first compound, second compound 1 µM) above 7.50; (curve of first compound, second compound 3.16 µM) above 7.50; (curve of first compound, second compound 10 µM) above 7.50. The viability, T/C by setting is: (second compound 0.0316 µM, first compound 0.0316 µM) 98.2%; (second compound 0.0316 µM, first compound 0.1 µM) 119%; (second compound 0.0316 µM, first compound 0.316 µM) 97.9%; (second compound 0.0316 µM, first compound 1 µM) 104%; (second compound 0.0316 µM, first compound 3.16 µM) 73.4%; (second compound 0.0316 µM, first compound 10 µM) 1.4%. The viability, T/C was 97.1% (second compound 0.1 µM, first compound 0.0316 µM); 97.5% (second compound 0.1 µM, first compound 0.1 µM); 101% (second compound 0.1 µM, first compound 0.316 µM); 95.5% (second compound 0.1 µM, first compound 1 µM); 70.1% (second compound 0.1 µM, first compound 3.16 µM); 0.64% (second compound 0.1 µM, first compound 10 µM). Further, the viability, T/C is, setting by setting: (second compound 0.316 µM, first compound 0.0316 µM) 66.5%; (second compound 0.316 µM, first compound 0.1 µM) 79.6%; (second compound 0.316 µM, first compound 0.316 µM) 70.9%; (second compound 0.316 µM, first compound 1 µM) 64.8%; (second compound 0.316 µM, first compound 3.16 µM) 48.9%; (second compound 0.316 µM, first compound 10 µM) 0.51%. In addition, the viability, T/C runs as follows: (second compound 1 µM, first compound 0.0316 µM) 6.67%; (second compound 1 µM, first compound 0.1 µM) 6.95%; (second compound 1 µM, first compound 0.316 µM) 6.76%; (second compound 1 µM, first compound 1 µM) 6.89%; (second compound 1 µM, first compound 3.16 µM) 1.53%; (second compound 1 µM, first compound 10 µM) 0.54%. The viability, T/C runs as follows: (second compound 3.16 µM, first compound 0.0316 µM) 0.79%; (second compound 3.16 µM, first compound 0.1 µM) 0.78%; (second compound 3.16 µM, first compound 0.316 µM) 1.18%; (second compound 3.16 µM, first compound 1 µM) 0.87%; (second compound 3.16 µM, first compound 3.16 µM) 1.8%; (second compound 3.16 µM, first compound 10 µM) 0.29%. The viability, T/C is, setting by setting: (second compound 10 µM, first compound 0.0316 µM) 0.4%; (second compound 10 µM, first compound 0.1 µM) 0.7%; (second compound 10 µM, first compound 0.316 µM) 1.4%; (second compound 10 µM, first compound 1 µM) 0.36%; (second compound 10 µM, first compound 3.16 µM) 0.43%; (second compound 10 µM, first compound 10 µM) 0.8%.

Take `C=C(F)C(=O)N1CCN(c2nc(OCC3CCCN3C)nc3c2CCN(c2cccc4cccc(Cl)c24)C3)CC1CC#N` (stereo unspecified): the viability, T/C is, setting by setting: (compound 0.0316 µM) 100% and 113%; (compound 0.1 µM) 91.7% and 107%; (compound 0.316 µM) 100% and 101%; (compound 1 µM) 108% and 101%; (compound 3.16 µM) 78.5% and 76%; (compound 10 µM) 1.09% and 1.7%. Where the note is “curve of compound”, the pIC50 was 5.32 and 5.33.

What is called viability, T/C is the ratio of treated to control. Usually pIC50 stands for the negative decadic logarithm of the IC50, by convention in mol/L.
